Source: patent US7786129B2, “Piperazine derivatives of dialkyl oxindoles” (Egis Gyogyszergyar Nyrt, priority 2004, dated 2010)
Where a name gives a salt, the structure may show the parent alone. Marks after values point to notes of the source that are not given here.

Experiments:
[1] = tested on: Male Sprague-Dawley rats; test: Elevated plus-maze test in rats; type: in vivo; settings: minimal effective dose, rat, p.o., 60 min after treatment, time in or entries into open arms
Description: (§1) The anxiolytic effect of the compounds according to the invention was investigated on rats according to Vogel's drinking conflict test and elevated plus-maze test (S. Pelow, P. Chopin, S. E. File, J. Briley: Neurosci. Methods 14, p. 149 (1985)).
A wooden cross elevated to 50 cm above the floor, 15 cm wide with 100 cm long arms was used for the experiments. The sides and ends of two opposite arms of the cross were equipped with 40 cm high walls, however, the arms were open to the 15×15 cm central area (closed arms). The two other opposite arms were not encircled by walls (open arms).
Male Sprague-Dawley rats weighing 200-220 g were used for the experiments. The animals were placed in the central area of the equipment 60 min after treatment and the following four parameters have been observed for the 5 min test time: • time spent in the open arms (sec), • time spent in the closed arms (see), • number of entries into the open arms, • number of entries into the closed arms.
The effect was expressed as percent increase in either the time spent in the open arms or number of entries into the open arms. MEDs (minimal effective doses) were determined for each compound.

[2] = tested on: Male Wistar rats; test: Vogel's drinking conflict test; type: in vivo; settings: ip, 0.5 h, rat, i.p. 30 min prior to test, increase in tolerated shocks, read-out: MED
Procedure: as §1
Male Wistar rats weighing 160-180 g were used for the experiment. The animals were deprived of drinking water for 48 hours and fasted for 24 hours prior to test. The test compounds or vehicle were administered intraperitoneally, 30 min prior to test. […] Following every 20 licks electric shocks (0.7 mA) were applied through the drinking spout during the 5 min test period. The number of punished licks were recorded. The effect of the test compounds was expressed as % increase in numbers of tolerated shocks. Minimal effective doses (MED) were determined for each compound.

[3] = tested on: Male Mongolian gerbils; test: Neuroprotective effect in global ischemia test (bilateral carotid occlusion); type: in vivo, Mongolian gerbil; settings: gerbil; for Effect (%): change of CA1 cell loss score vs. control, 30 mg/kg i.p.; for CA1 cell loss (score): 30 mg/kg i.p. 45 min after surgery, scored 4 days after surgery on 6-point scale
Procedure: Male Mongolian gerbils weighing 60-90 g were used as test animals. The test compounds were administered intraperitoneally at a dose of 30 mg/kg 45 min after surgery. Test substances were suspended in 0.4% methylcellulose solution. In diethylether narcosis, the right and left common carotid arteries were exposed through an anterior midline cervical incision and isolated from the vagus nerves and the surrounding tissues. Full arrest of carotid blood flow was achieved by tightening an aneurysm clip for 3 min. During surgery the body temperature of the animals was kept at the individual preoperative level (37.5±0.5° C.) with the help of a heating pad and a heating lamp.
4 days after the surgery the animals were anaesthetized with 60 mg/kg i.p nembutal (10 ml/kg) and perfused through the heart first with saline then with a fixative solution containing 0.1% glutaraldehyde, 4% paraformaldehyde and 0.2% picric acid in 0.1 M phosphate buffer (pH 7.4) for 30 min. The brain was removed from the skull and post fixed for at least 1 week at 4° C. in the same fixative solution.
Alternate coronal sections of 60 μm thickness were cut from different levels of the dorsal hippocampus by a microtome. The sections were repeatedly washed in 0.1 M phosphate buffer (pH 7.4) and stained by silver impregnation. The sections were stored twice in a preparatory solution (2% sodium hydroxide and 0.875% ammonium hydroxide solution) for 5 minutes, impregnated for 10 minutes in 0.875% ammonium hydroxide and 0.5% silver nitrate solution) and placed into a washing solution (0.5% sodium carbonate and 0.01% ammonium nitrate dissolved in a 29.1% aqueous ethanol solution) twice for 2 minutes and once for one minute. The slices were then developed in 9.9% ethanol solution containing 1.5% formaldehyde and 0.01% ammonium nitrate and fixed three times for 3 minutes in a 0.5% acetic acid solution. The stained slices were placed in 0.1M phosphate buffer (pH 7.4) and chrome gelatine, applied on plates, dehydrated and treated with xylol. The cover plates were fixed with DPX glue (Fluka).
The sections were examined under light microscopy and the overall neuronal damage in the hippocampal CA1 subfield in both hippocampi was scored on a 6-point scale: (O) undamaged, (1)—0-10%; (2)—10-30%; (3)—30-50%; (4)—50-70%; (5)—70-90%; (6)—90-100% cell loss. Group differences between drug-treated and vehicle-treated groups were statistically analysed by Mann-Whitney U-test.

[4] = tested on: dopamine release in the internal ear of guinea pig; test: Dopamine release in the internal ear (cochlear preparations, oxygen and glucose deprivation); settings: guinea pig cochlear preparation, second stimulation after oxygen and glucose deprivation, FIG. 1
Procedure: The study of the effect on the hearing impairment and tinnitus were performed in guinea pigs weighing 145-375 g (Toxicoop, Hungary) according to the method of Gáboiján et al. (Gáboiján, A., Lendvai, B, Vizi, E. S.: Neuroscience 90, p. 131 (1999)). The dopamine release in the internal ear, as a correlate of hearing impairment, was measured in samples from cochlear preparations (lateral olivocochlear efferents) with high-pressure liquid chromatography (HPLC). The samples were collected in every 3 minutes during 60 minutes (20 fractions). Electric field stimulation was generally applied during the 3rd and 13th fraction (S1, S2, 2 Hz, 360 shocks, 60 V; Grass Medical Instruments). In the respective experiments ischemia (oxygen and glucose deprivation, OGD) was mimicked by the perfusion of a buffer saturated with 100% N2 and containing sacharose instead of glucose. Results are expressed as a percent of dopamine release per fraction. Statistical analysis was performed by analysis of variance (ANOVA) followed by Tukey test.
From the thus-obtained results the effect of the compound of Example 76 on the dopamine release in the internal ear of guinea pig is shown (FIG. 1). The initial stimulation (SI) evoked considerable dopamine release. […] This effect can be interpreted as an inhibition of hearing impairment.

[5] = target: T1, 5-HT1A receptor (Rattus norvegicus, UniProt P19327); test: 5-HT1A receptor binding; settings: rat frontal cortex preparation, ligand tritiated 8-OH-DPAT
T1 construct: from tissue; host or cells: rat frontal cortex membrane preparation
T1 sequence (P19327 1-422): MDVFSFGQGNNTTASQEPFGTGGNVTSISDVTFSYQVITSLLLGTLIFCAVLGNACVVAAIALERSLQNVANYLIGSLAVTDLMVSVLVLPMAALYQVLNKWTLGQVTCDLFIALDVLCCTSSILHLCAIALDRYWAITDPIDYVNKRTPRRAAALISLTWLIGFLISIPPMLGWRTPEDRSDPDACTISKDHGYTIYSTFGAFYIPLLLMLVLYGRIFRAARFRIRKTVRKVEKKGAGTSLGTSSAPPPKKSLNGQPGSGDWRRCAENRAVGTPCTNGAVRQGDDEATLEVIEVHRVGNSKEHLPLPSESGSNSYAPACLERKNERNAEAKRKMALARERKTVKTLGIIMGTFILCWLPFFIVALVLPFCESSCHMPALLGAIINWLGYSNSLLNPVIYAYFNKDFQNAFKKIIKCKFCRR
Procedure: (§2) Receptor bindings—with the exception of the 5-HT2C receptor binding—were determined by using cerebral region preparations of male Wistar rats weighing 120-200 g. For the preparation of 5-HT1A receptor binding frontal cortex preparations were used. The al receptor binding studies were performed from isolated frontal cortex pre-parations. For the 5-HT2C receptor binding experiments choroid plexus of pigs was used. The protein contents of membrane preparations were determined by the method of Lowry (1951).
5-HT1A receptor binding was measured according to the method of Peroutka (Peroutka, S. J.: J. Neurochem. 47, p. 529 (1986)). The ligand was tritiated 8-hydroxy-N,N-dipropyl-2-aminotetraline (8-OH-DPAT). For the determination of non-specific binding 10 μM serotonin was applied. Incubation […] volume was 250 μl. Incubation was carried out at a temperature of 25 C for 30 minutes. The reaction was terminated by the addition of 9 ml of ice-cold 50 mM TRIS-HCl (pH 7.7) buffer and quick vacuum filtration using Whatman GFIB fibreglass filtering paper. Radioactivity of the filter boards was measured by liquid scintillation spectrometry.
(§3) The IC50 value is the value of concentration where the difference between total and non-specific binding is 50% in the presence of a determined concentration of a specific ligand.

[6] = target: T2, 5-HT2C receptor (Sus scrofa, UniProt K7GSR7); test: 5-HT2C receptor binding; parameters: species or system pig; settings: choroid plexus of pigs, ligand 3H-mesulergin 1.0 nM
T2 construct: from tissue; host or cells: pig choroid plexus membrane preparation
T2 sequence (K7GSR7 1-457): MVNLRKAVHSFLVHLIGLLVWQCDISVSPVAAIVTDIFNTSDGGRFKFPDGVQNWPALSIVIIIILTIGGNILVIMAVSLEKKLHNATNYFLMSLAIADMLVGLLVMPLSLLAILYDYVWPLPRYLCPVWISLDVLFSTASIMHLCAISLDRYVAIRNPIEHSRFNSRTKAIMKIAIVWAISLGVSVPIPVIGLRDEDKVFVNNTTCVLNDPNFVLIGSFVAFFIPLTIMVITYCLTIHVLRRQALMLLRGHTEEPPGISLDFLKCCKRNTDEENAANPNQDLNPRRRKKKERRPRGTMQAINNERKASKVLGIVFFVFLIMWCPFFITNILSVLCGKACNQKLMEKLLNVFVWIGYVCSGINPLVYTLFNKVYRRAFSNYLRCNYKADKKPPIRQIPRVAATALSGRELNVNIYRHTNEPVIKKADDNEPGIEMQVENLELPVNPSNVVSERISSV
Procedure: as §2
(§4) In the course of 5-HT2C and α1 receptor binding experiments the ligands were ^3H-mesulergin (1.0 nM) and ^3H-prazosine (0.3 nM), respectively. The non-specifically binding ligands were mianserine (1 μM and prazosine (1 μM), respectively.
as §3

[7] = target: α1 receptor; test: α1 receptor binding experiment; settings: rat isolated frontal cortex preparation, ligand 3H-prazosine 0.3 nM
Procedure: as §2, §4, §3

Compound	melting point [°C]	IC50 [5] [µM]	IC50 [6] [µM]	IC50 [7] [µM]	MED [1] [mg/kg p.o.]	minimal effective dose [2] [mg/kg]	Effect (%) [3] [%]	CA1 cell loss (score) [3]	dopamine release in the internal ear [4]
CCC1(CCCCN2CCN(c3cccc(Cl)c3)CC2)C(=O)Nc2ccc(F)cc21 (stereo not shown) [Example 85, 3-{4-[4-(3-Chlorophenyl)-piperazin-1-yl]-butyl}-3-ethyl-5-fluoro-1,3-dihydro-2H-indol-2-one mono-hydrochloride]	–	–	–	–	0.1	5	−46	2.70* score	–
CCC1(CCCCN2CCN(c3ccc(Cl)cc3)CC2)C(=O)Nc2c(Cl)cc(Cl)cc21 (stereo not shown) [Example 87, 5,7-Dichloro-3-{4-[4-(4-chlorophenyl)-piperazin-1-yl]-butyl}-3-ethyl-1,3-dihydro-2H-indol-2-one]	152 to 154	> 0.4	–	–	0.3	5	–	–	–
CCC1(CCCCN2CCN(c3ccc(F)cc3)CC2)C(=O)Nc2ccccc21 (stereo not shown) [Example 95, 3-Ethyl-3-{4-[4-(4-fluorophenyl)-piperazin-1-yl]-butyl}-1,3-dihydro-2H-indol-2-one]	118 to 119	> 0.3	–	–	0.1	10	–	–	–
CCC1(CCCCN2CCN(c3ccccc3)CC2)C(=O)Nc2ccccc21 (stereo not shown) [Example 68, 3-[4-(4-Phenylpiperazin-1-yl)-butyl]-3-ethyl-1,3-dihydro-2H-indol-2-one monooxalate]	–	> 0.2	< 0.1	–	–	10	–	–	–

Continued, in another order:

melting point [°C]	IC50 [5] [µM]	IC50 [6] [µM]	IC50 [7] [µM]	Compound	MED [1] [mg/kg p.o.]	minimal effective dose [2] [mg/kg]	Effect (%) [3] [%]	CA1 cell loss (score) [3]	dopamine release in the internal ear [4]
145 to 146	–	–	–	CCC1(CCCCN2CCN(c3ccc(Cl)cc3)CC2)C(=O)Nc2ccccc21 (stereo not shown) [Example 76, 3-{4-[4-(4-Chlorophenyl)-piperazin-1-yl]-butyl}-3-ethyl-1,3-dihydro-2H-indol-2-one]	–	10	−52	2.40* score	the release stabilized at a significantly higher level
–	> 0.2	< 0.1	–	CCC1(CCCCN2CCN(c3cccc(Cl)c3)CC2)C(=O)Nc2ccc(S(N)(=O)=O)cc21 (stereo not shown) [Example 72, 3-{4-[4-(3-Chlorophenyl)-piperazin-1-yl]-butyl}-3-ethyl-1,3-dihydro-2H-indol-2-one 5-sulfonamide monooxalate]	–	–	–	–	–
117 to 119	–	< 0.05	–	CCC1(CCCN2CCN(c3cccc(Cl)c3)CC2)C(=O)Nc2ccc(Cl)cc21 (stereo not shown) [Example 57, 5-Chloro-3-{3-[4-(3-chlorophenyl)-piperazin-1-yl]-propyl}-3-ethyl-1,3-dihydro-2H-indol-2-one]	–	–	–	–	–
148 to 150	> 0.3	–	–	CCC1(CCCCN2CCN(c3ccc(Cl)cc3)CC2)C(=O)Nc2ccc(F)cc21 (stereo not shown) [Example 90, 3-{4-[4-(4-Chlorophenyl)-piperazin-1-yl]-butyl}-3-ethyl-5-fluoro-1,3-dihydro-2H-indol-2-one]	–	–	−38	2.73* score	–
142 to 144	> 0.2	< 0.1	< 0.1	CCC1(CCCCN2CCN(c3cccc(Cl)c3)CC2)C(=O)Nc2ccc(C)cc21 (stereo not shown) [Example 78, 3-{4-[4-(3-Chlorophenyl)-piperazin-1-yl]-butyl}-3-ethyl-5-methyl-1,3-dihydro-2H-indol-2-one]	–	–	–	–	–
–	> 0.2	< 0.1	–	CCC1(CCCCN2CCN(c3cccc(Cl)c3)CC2)C(=O)Nc2ccc(Br)cc21 (stereo not shown) [Example 61, 5-Bromo-3-{4-[4-(3-chlorophenyl)-piperazin-1-yl]-butyl}-3-ethyl-1,3-dihydro-2H-indol-2-one monooxalate]	–	–	–	–	–
